Measured values as given in patent US12331094B2 (Bayer Aktiengesellschaft, priority 2018, dated 2025).
Positions of bridges follow the written chain, without caps; N, C: chain ends. Residues, ends and D or L forms follow the SMILES beside them.

Legend:
[1] = target: T1, neutral endopeptidase (NEP) (Homo sapiens, UniProt P08473); experiment: Sensitivity towards proteolytic degradation by NEP (reporter cell activity after incubation); format: in vitro ADME; conditions: 4 hours incubation with 0.6 μg/ml NEP at 37° C., then reporter cell activity
T1 construct: purchased R&D Systems 1182-ZNC

[2] = target: T2, insulin degrading enzyme (IDE) (Rattus norvegicus, UniProt P35559); experiment: Sensitivity towards proteolytic degradation by IDE (reporter cell activity after incubation); conditions: 4 hours incubation with 0.6 μg/ml IDE at 37° C., then reporter cell activity
T2 sequence (P35559 1-1019): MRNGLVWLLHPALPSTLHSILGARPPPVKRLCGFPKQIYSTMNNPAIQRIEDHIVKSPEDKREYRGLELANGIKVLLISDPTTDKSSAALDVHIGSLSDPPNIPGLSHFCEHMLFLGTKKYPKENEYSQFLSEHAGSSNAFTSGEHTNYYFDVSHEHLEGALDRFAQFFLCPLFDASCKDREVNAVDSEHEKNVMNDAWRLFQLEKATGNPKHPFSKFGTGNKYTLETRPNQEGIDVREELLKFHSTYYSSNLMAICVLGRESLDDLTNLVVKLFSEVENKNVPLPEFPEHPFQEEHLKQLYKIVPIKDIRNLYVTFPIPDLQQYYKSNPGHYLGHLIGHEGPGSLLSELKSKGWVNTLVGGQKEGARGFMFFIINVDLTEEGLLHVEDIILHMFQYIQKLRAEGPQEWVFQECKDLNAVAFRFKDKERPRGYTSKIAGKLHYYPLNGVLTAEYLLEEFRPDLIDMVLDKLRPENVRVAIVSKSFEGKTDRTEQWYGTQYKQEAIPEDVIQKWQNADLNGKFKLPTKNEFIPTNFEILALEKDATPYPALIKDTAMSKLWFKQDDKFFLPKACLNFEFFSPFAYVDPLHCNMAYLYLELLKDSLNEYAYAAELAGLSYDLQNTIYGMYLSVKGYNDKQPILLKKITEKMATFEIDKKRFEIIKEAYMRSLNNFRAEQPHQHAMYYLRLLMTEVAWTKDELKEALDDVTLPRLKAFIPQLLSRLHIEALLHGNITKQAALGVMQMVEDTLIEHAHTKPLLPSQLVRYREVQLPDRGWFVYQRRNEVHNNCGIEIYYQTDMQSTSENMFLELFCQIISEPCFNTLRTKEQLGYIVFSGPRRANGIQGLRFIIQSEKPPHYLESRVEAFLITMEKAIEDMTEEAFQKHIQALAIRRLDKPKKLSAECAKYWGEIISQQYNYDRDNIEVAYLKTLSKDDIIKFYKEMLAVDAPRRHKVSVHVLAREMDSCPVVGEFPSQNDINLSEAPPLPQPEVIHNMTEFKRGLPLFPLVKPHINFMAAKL

[3] = test system: PE-contracted aortic rings; experiment: Vasorelaxation of isolated phenylephrine-contracted rat aortic rings
Experimental: All experiments were conducted in accordance with institutional guidelines and approved by the local committee on animal experiments. Male Sprague-Dawley rats (weighing 250-300 g) were anesthetized with pentobarbital sodium (40 mg/kg i.p.), killed by decapitation, and exsanguinated. The thoracic aorta was excised and placed in ice-cold Krebs buffer of the following composition: 130 mM NaCl, 14.9 mM NaHCO3, 5.5 mM dextrose, 4.7 mM KCl, 1.18 mM KH2PO4, 1.17 mM MgSO47H2O, and 1.6 mM CaCl22H2O. The vessel was pinned in a Sylgard Petri dish filled with chilled Krebs' solution, cleaned of fat and connective tissue, and cut into ring segments of approximately 3 to 4 mm in length. […] Changes in isometric force were recorded using a PowerLab data acquisition system (software Lab Chart 7.0)
After the equilibration period, aortic rings were challenged with 80 mM KCl to check tissue viability. Next, the endothelial integrity of the preparations was determined by verifying the responsiveness to acetylcholine (ACh, 1 μM) in vessels pre-contracted with Phenylephrine (PE, 1 μM). After wash-out and a period of equilibration, Phenylephrine (PE, 1 μM) was used to induce contraction, thereafter natriuretic peptides and natriuretic peptide engrafted IgGs were evaluated for vasorelaxation.

[4] = test system: spontaneously hypertensive rats; experiment: Radiotelemetric blood pressure in conscious spontaneously hypertensive rats; format: in vivo, rat; conditions: 500 μg dose intraperitoneally
Experimental: Blood pressure and heart rate were monitored in freely moving conscious animals by radiotelemetry (Data Sciences International). Female spontaneously hypertensive rats (SHR/N Crl BR, Charles River) with a body weight of 210-300 g were used for these studies. All animals were housed in individual cages at 22-24° C. ambient temperature and maintained on a 12-hour light/dark cycle with free access to standard laboratory rat chow and water ad libitum. Telemeter (HD-10, DSI) implantation was performed a minimum of 14 days before animals were used for blood pressure measurements. Surgery was performed under aseptic conditions. After shaving the abdominal wall, a midline abdominal incision was made, and the fluid-filled sensor catheter was inserted upstream into the exposed descending aorta between the iliac bifurcation and the renal arteries. According to the DSI guidelines the tip of the telemetric catheter was located caudal to the renal arteries and secured by tissue adhesive. The transmitter body was affixed to the inner peritoneal wall before closure of the abdomen. […] Data are expressed as % of basal values±SEM of at least 4 animals per group. The basal value for each animal was calculated as the average of the values measured in two hours prior to substance application (7:00-9:00 AM). Data are then expressed as averages every half hour, starting 15 minutes post application. […]

T1 sequence (P08473 52-750 limits assumed): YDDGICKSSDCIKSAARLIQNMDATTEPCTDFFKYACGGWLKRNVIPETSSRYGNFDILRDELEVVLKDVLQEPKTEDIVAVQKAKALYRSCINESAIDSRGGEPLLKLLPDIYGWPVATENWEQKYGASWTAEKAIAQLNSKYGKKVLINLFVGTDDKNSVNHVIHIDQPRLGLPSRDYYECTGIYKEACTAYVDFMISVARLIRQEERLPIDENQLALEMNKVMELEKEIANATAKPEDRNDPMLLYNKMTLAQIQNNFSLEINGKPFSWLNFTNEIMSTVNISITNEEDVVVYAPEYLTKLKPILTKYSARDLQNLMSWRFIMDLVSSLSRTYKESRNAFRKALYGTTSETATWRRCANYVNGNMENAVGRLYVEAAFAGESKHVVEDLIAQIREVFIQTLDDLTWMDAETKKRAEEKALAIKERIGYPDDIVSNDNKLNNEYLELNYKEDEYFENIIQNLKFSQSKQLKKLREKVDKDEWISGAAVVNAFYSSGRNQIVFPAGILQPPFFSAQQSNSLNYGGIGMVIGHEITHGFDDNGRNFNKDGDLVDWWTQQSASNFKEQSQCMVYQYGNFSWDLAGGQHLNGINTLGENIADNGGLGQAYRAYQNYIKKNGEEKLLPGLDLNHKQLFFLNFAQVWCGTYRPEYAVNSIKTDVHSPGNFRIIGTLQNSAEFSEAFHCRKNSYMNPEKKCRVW

proteolytic degradation by NEP [1] | proteolytic degradation by IDE [2] | Molecule | vasodilation in PE-contracted aortic rings [3] | Potency (log EC50 values) ([3]; vasodilation, endothelium-intact rat aortic rings contracted by phenylephrine (1 μM)) | drop in mean arterial blood pressure (MAP) [4] | duration of effect [4] [h]
high sensitivity | high sensitivity | CC[C@H](C)[C@@H]1NC(=O)[C@H](CCCNC(=N)N)NC(=O)[C@H](CC(=O)O)NC(=O)[C@H]([C@@H](C)CC)NC(=O)[C@H](CCCCN)NC(=O)[C@H](CCC(N)=O)NC(=O)CNC(=O)[C@H](Cc2ccccc2)NC(=O)[C@@H](NC(=O)[C@H](CO)NC(=O)[C@H](CO)NC(=O)[C@H](CO)NC(=O)[C@H](Cc2c[nH]cn2)NC(=O)[C@H](C)NC(=O)[C@H](CCSC)NC(=O)[C@H](CCCCN)NC(=O)[C@H](CO)NC(=O)[C@@H](N)CC(N)=O)CSSC[C@@H](C(=O)N[C@@H](CC(=O)O)C(=O)NCC(=O)N[C@@H](CC(C)C)C(=O)N[C@@H](CCCNC(=N)N)C(=O)N[C@@H](CC(C)C)C(=O)N[C@@H](Cc2ccccc2)C(=O)O)NC(=O)CNC(=O)[C@H](CC(C)C)NC(=O)[C@H](CCCNC(=N)N)NC(=O)[C@H](CO)NC(=O)[C@H](C(C)C)NC(=O)[C@H](C)NC(=O)CNC1=O [BNP, Brain Natriuretic Peptide, reference compound] (H-NSKMAHSSSCFGQKIDRIGAVSRLGCDGLRLF-OH; disulfide 10-26; N-terminus and C-terminus assumed) | – | – | – | –
– | – | ANP peptide: Rat ANP peptide (ADH-GM-10057T, Santai Labs) used as a reference (SLRRSSCFGGRIDRIGAQSGLGCNSFRY) [reference compound] | dose-dependent vasodilation | −7.4 | approximately 25% | 6 to 8
